ChEMBL document CHEMBL1201862, “PubChem BioAssay data set” (2004)
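Test compounds were applied to cells in 96-well plates for 48 hours at 5 doses. Abbreviation: GI50, concentration required for 50% inhibition of growth.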 Activity calls are given as the source filed them. Rule as the data show it: active = GI50 up to about 1.1 µM and inactive = higher.

What was measured:
Test in all cases: NCI anticancer screen, dose series, 48 h
786-0 = tested on: 786-0
A498 = tested on: A498
A549 = tested on: A549
ACHN = tested on: ACHN
HCC 2998 = tested on: HCC 2998
HOP-92 = tested on: HOP-92
KM-20L2 = tested on: KM-20L2
M14 = tested on: M14
NCI-H23 = tested on: NCI-H23
OVCAR-4 = tested on: OVCAR-4
RPMI-8226 = tested on: RPMI-8226
SF-539 = tested on: SF-539
SK-MEL-28 = tested on: SK-MEL-28
SN12C = tested on: SN12C
SNB-78 = tested on: SNB-78
SR = tested on: SR
U-251 = tested on: U-251

## C/C(CCn1[nH]c(=O)ccc1=O)=N\O
786-0
  GI50: > 100 µM (inactive)
A498
  GI50: > 100 µM (inactive)
A549
  GI50: > 100 µM (inactive)
ACHN
  GI50: > 100 µM (inactive)
HCC 2998
  GI50: > 100 µM (inactive)
HOP-92
  GI50: > 100 µM (inactive)
KM-20L2
  GI50: > 100 µM (inactive)
M14
  GI50: > 100 µM (inactive)
NCI-H23
  GI50: > 100 µM (inactive)
OVCAR-4
  GI50: > 100 µM (inactive)
RPMI-8226
  GI50: > 100 µM (inactive)
SF-539
  GI50: > 100 µM (inactive)
SK-MEL-28
  GI50: > 100 µM (inactive)
SN12C
  GI50: > 100 µM (inactive)
SNB-78
  GI50: > 100 µM (inactive)
SR
  GI50: > 100 µM (inactive)

## CN1CN(C2OC(CO)C(O)C2O)c2nc(N)[nH]c(=O)c21 (stereo not given)
786-0
  GI50: > 100 µM (inactive)
A498
  GI50: > 100 µM (inactive)
A549
  GI50: > 100 µM (inactive)
ACHN
  GI50: > 100 µM (inactive)
HCC 2998
  GI50: > 100 µM (inactive)
HOP-92
  GI50: > 100 µM (inactive)
KM-20L2
  GI50: > 100 µM (inactive)
M14
  GI50: > 100 µM (inactive)
NCI-H23
  GI50: > 100 µM (inactive)
OVCAR-4
  GI50: > 100 µM (inactive)
RPMI-8226
  GI50: > 100 µM (inactive)
SF-539
  GI50: > 100 µM (inactive)
SN12C
  GI50: > 100 µM (inactive)
SNB-78
  GI50: > 100 µM (inactive)
SR
  GI50: > 100 µM (inactive)
U-251
  GI50: > 100 µM (inactive)

## CCSc1nnc(CSc2nc(-c3ccccc3)c(-c3ccccc3)[nH]2)n1-c1ccccc1
786-0
  GI50: 19.8 µM (inactive)
A498
  GI50: 18.5 µM (inactive)
A549
  GI50: 29.9 µM (inactive)
ACHN
  GI50: 17.2 µM (inactive)
HCC 2998
  GI50: 20.8 µM (inactive)
HOP-92
  GI50: 20.8 µM (inactive)
KM-20L2
  GI50: 17.9 µM (inactive)
M14
  GI50: 19 µM (inactive)
NCI-H23
  GI50: 21 µM (inactive)
RPMI-8226
  GI50: 21.5 µM (inactive)
SK-MEL-28
  GI50: 21 µM (inactive)
SN12C
  GI50: 15.8 µM (inactive)
SNB-78
  GI50: 41.1 µM (inactive)
SR
  GI50: 24.3 µM (inactive)
U-251
  GI50: 17.9 µM (inactive)

## CCC(=O)NCC1(c2c[nH]c3ccccc23)SCCS1
786-0
  GI50: > 100 µM (inactive)
A498
  GI50: > 100 µM (inactive)
A549
  GI50: > 100 µM (inactive)
ACHN
  GI50: 82 µM (inactive)
HCC 2998
  GI50: > 100 µM (inactive)
HOP-92
  GI50: > 100 µM (inactive)
KM-20L2
  GI50: > 100 µM (inactive)
M14
  GI50: > 100 µM (inactive)
NCI-H23
  GI50: > 100 µM (inactive)
OVCAR-4
  GI50: > 100 µM (inactive)
RPMI-8226
  GI50: > 100 µM (inactive)
SF-539
  GI50: > 100 µM (inactive)
SK-MEL-28
  GI50: > 100 µM (inactive)
SN12C
  GI50: > 100 µM (inactive)
SNB-78
  GI50: > 100 µM (inactive)
SR
  GI50: > 100 µM (inactive)
U-251
  GI50: > 100 µM (inactive)

## C[C@]12CC/C(=N\O)C=C1CC[C@@H]1C2CC[C@@]2(C)C1CC[C@@H]2OC1CCCCO1 (stereo not given in full)
786-0
  GI50: 17.7 µM (inactive)
A498
  GI50: > 100 µM (inactive)
A549
  GI50: 22.6 µM (inactive)
ACHN
  GI50: 16.3 µM (inactive)
HCC 2998
  GI50: 15.4 µM (inactive)
HOP-92
  GI50: 17.7 µM (inactive)
KM-20L2
  GI50: 14.4 µM (inactive)
M14
  GI50: 18.3 µM (inactive)
NCI-H23
  GI50: 17.3 µM (inactive)
OVCAR-4
  GI50: 15.6 µM (inactive)
RPMI-8226
  GI50: 15.7 µM (inactive)
SF-539
  GI50: > 10 µM (inactive)
SK-MEL-28
  GI50: 22.7 µM (inactive)
SN12C
  GI50: > 10 µM (inactive)
SNB-78
  GI50: 19.1 µM (inactive)
U-251
  GI50: 17.9 µM (inactive)

## COC(=O)/C(=N\Nc1nc(S)nn1N)C(C#N)c1ccc(Cl)cc1 (stereo not given)
786-0
  GI50: > 100 µM (inactive)
A498
  GI50: > 100 µM (inactive)
A549
  GI50: > 100 µM (inactive)
ACHN
  GI50: > 100 µM (inactive)
HCC 2998
  GI50: > 100 µM (inactive)
HOP-92
  GI50: > 100 µM (inactive)
KM-20L2
  GI50: > 100 µM (inactive)
M14
  GI50: > 100 µM (inactive)
NCI-H23
  GI50: > 100 µM (inactive)
OVCAR-4
  GI50: > 100 µM (inactive)
RPMI-8226
  GI50: > 100 µM (inactive)
SF-539
  GI50: > 100 µM (inactive)
SK-MEL-28
  GI50: > 100 µM (inactive)
SN12C
  GI50: > 100 µM (inactive)
SNB-78
  GI50: > 100 µM (inactive)
U-251
  GI50: > 100 µM (inactive)

## Cc1cc(C)nc(NS(=O)(=O)c2ccc(Nc3c4ccccc4nc4c(C(=O)NCCN(C)C)ccc(Cl)c34)cc2)n1
786-0
  GI50: 3.73 µM (inactive)
A549
  GI50: 0.942 µM (active)
ACHN
  GI50: 2.02 µM (inactive)
HCC 2998
  GI50: 13.8 µM (inactive)
KM-20L2
  GI50: 2.08 µM (inactive)
M14
  GI50: 2.9 µM (inactive)
NCI-H23
  GI50: 2.43 µM (inactive)
OVCAR-4
  GI50: 1.1 µM (active)
SF-539
  GI50: 2.36 µM (inactive)
SK-MEL-28
  GI50: 5.4 µM (inactive)
SN12C
  GI50: 1.45 µM (inactive)
SNB-78
  GI50: 8.3 µM (inactive)
SR
  GI50: 0.259 µM (active)
U-251
  GI50: 1.66 µM (inactive)

## CC(=O)CCC1(c2ccccc2)OC(=O)C(C#N)=C1c1ccccc1 (stereo not given)
786-0
  GI50: > 100 µM (inactive)
A498
  GI50: > 100 µM (inactive)
A549
  GI50: > 100 µM (inactive)
ACHN
  GI50: > 100 µM (inactive)
HCC 2998
  GI50: > 100 µM (inactive)
HOP-92
  GI50: 50 µM (inactive)
KM-20L2
  GI50: > 100 µM (inactive)
M14
  GI50: > 100 µM (inactive)
NCI-H23
  GI50: > 100 µM (inactive)
OVCAR-4
  GI50: 80.4 µM (inactive)
RPMI-8226
  GI50: 39.8 µM (inactive)
SF-539
  GI50: > 100 µM (inactive)
SK-MEL-28
  GI50: > 100 µM (inactive)
SN12C
  GI50: > 100 µM (inactive)
SNB-78
  GI50: > 100 µM (inactive)
U-251
  GI50: 88.1 µM (inactive)

## N#CC1CCCCOCCOCCOCCOCCOCCCCCC1=O (stereo not given)
786-0
  GI50: > 100 µM (inactive)
A498
  GI50: > 100 µM (inactive)
A549
  GI50: > 100 µM (inactive)
ACHN
  GI50: > 100 µM (inactive)
HCC 2998
  GI50: > 100 µM (inactive)
KM-20L2
  GI50: > 100 µM (inactive)
M14
  GI50: > 100 µM (inactive)
NCI-H23
  GI50: > 100 µM (inactive)
OVCAR-4
  GI50: > 100 µM (inactive)
RPMI-8226
  GI50: > 100 µM (inactive)
SK-MEL-28
  GI50: > 100 µM (inactive)
SN12C
  GI50: > 100 µM (inactive)
SNB-78
  GI50: > 100 µM (inactive)
SR
  GI50: > 100 µM (inactive)
U-251
  GI50: > 100 µM (inactive)

## COC(=O)C1C2C=CC(C2)C1(C(=O)OC)[S+]([O-])CC12CCC(CC1O)C2(C)C (stereo not given)
786-0
  GI50: > 100 µM (inactive)
A498
  GI50: > 100 µM (inactive)
A549
  GI50: > 100 µM (inactive)
ACHN
  GI50: > 100 µM (inactive)
HCC 2998
  GI50: > 100 µM (inactive)
HOP-92
  GI50: > 100 µM (inactive)
KM-20L2
  GI50: > 100 µM (inactive)
M14
  GI50: > 100 µM (inactive)
NCI-H23
  GI50: > 100 µM (inactive)
OVCAR-4
  GI50: > 100 µM (inactive)
RPMI-8226
  GI50: 70.1 µM (inactive)
SF-539
  GI50: > 100 µM (inactive)
SK-MEL-28
  GI50: > 100 µM (inactive)
SN12C
  GI50: > 100 µM (inactive)
SNB-78
  GI50: > 100 µM (inactive)
SR
  GI50: 31.2 µM (inactive)
U-251
  GI50: > 100 µM (inactive)

## NC(CSSCC(N)Cc1ccccc1)Cc1ccccc1 (stereo not given)
786-0
  GI50: 32.9 µM (inactive)
A498
  GI50: > 100 µM (inactive)
A549
  GI50: 65.8 µM (inactive)
ACHN
  GI50: 76.4 µM (inactive)
HCC 2998
  GI50: > 100 µM (inactive)
KM-20L2
  GI50: 71.1 µM (inactive)
M14
  GI50: 26.4 µM (inactive)
NCI-H23
  GI50: 44.4 µM (inactive)
OVCAR-4
  GI50: 70.8 µM (inactive)
RPMI-8226
  GI50: 35.3 µM (inactive)
SK-MEL-28
  GI50: 43.4 µM (inactive)
SN12C
  GI50: 37.9 µM (inactive)
SNB-78
  GI50: > 100 µM (inactive)
SR
  GI50: 31 µM (inactive)
U-251
  GI50: 84.1 µM (inactive)

## Cc1cc(Br)cc(C)c1NC(=O)C(=O)C(C(=O)c1ccncc1)C1OC(=O)c2ccccc21 (stereo not given)
786-0
  GI50: > 100 µM (inactive)
A498
  GI50: > 100 µM (inactive)
A549
  GI50: > 100 µM (inactive)
ACHN
  GI50: > 100 µM (inactive)
HCC 2998
  GI50: > 100 µM (inactive)
HOP-92
  GI50: > 100 µM (inactive)
KM-20L2
  GI50: > 100 µM (inactive)
M14
  GI50: > 100 µM (inactive)
NCI-H23
  GI50: > 100 µM (inactive)
OVCAR-4
  GI50: > 100 µM (inactive)
RPMI-8226
  GI50: > 100 µM (inactive)
SN12C
  GI50: > 100 µM (inactive)
SNB-78
  GI50: > 100 µM (inactive)
SR
  GI50: > 100 µM (inactive)
U-251
  GI50: > 100 µM (inactive)

## CCCCCCC(=O)OC[n+]1ccc2c(C)c3[nH]c4ccccc4c3c(C)c2c1
786-0
  GI50: 0.418 µM (active)
A498
  GI50: 1.01 µM (active)
A549
  GI50: 0.474 µM (active)
ACHN
  GI50: 0.703 µM (active)
HCC 2998
  GI50: 0.826 µM (active)
HOP-92
  GI50: 3.18 µM (inactive)
KM-20L2
  GI50: 0.582 µM (active)
M14
  GI50: 1.29 µM (inactive)
NCI-H23
  GI50: 0.455 µM (active)
OVCAR-4
  GI50: 1.06 µM (active)
RPMI-8226
  GI50: 0.0785 µM (active)
SF-539
  GI50: 0.646 µM (active)
SK-MEL-28
  GI50: 1.56 µM (inactive)
SN12C
  GI50: 0.404 µM (active)
SNB-78
  GI50: 1.09 µM (active)
SR
  GI50: 0.101 µM (active)
U-251
  GI50: 0.552 µM (active)
